From patent publication US12391657B2, “Small molecules that bind and/or modulate differentforms of tau oligomers” (The Board of Regents of the University of Texas System, priority 2019, dated 2025)
“Also recorded” adds a separate entry of the source.

Columns and labels:
[1] = target: T1, recombinant tau oligomers (TauO) (Homo sapiens, UniProt P10636); assay: Dot blot of recombinant tau oligomers with and without compounds; assay type: biochemical; conditions: curcumin
T1 construct: made in house
T1 sequence (P10636 1-441 isoform P10636-8): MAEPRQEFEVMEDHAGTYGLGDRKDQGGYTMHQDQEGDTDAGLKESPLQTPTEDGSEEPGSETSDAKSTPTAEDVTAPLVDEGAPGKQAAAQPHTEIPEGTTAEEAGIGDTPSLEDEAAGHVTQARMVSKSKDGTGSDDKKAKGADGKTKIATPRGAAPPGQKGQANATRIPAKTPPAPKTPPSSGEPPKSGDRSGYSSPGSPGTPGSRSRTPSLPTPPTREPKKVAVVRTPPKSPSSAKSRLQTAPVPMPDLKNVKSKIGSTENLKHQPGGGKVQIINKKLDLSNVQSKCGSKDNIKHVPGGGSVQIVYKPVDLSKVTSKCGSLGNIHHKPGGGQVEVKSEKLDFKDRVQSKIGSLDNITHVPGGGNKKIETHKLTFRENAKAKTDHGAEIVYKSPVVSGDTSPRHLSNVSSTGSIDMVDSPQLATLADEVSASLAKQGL
Description: The dot blot assay was performed as previously described (Lasagna-Reeves, Castillo-Carranza et al. 2010), to detect tau oligomers in the absence and presence of small molecules. Briefly, 1.5 μl of each end-product reaction was applied onto nitrocellulose membranes and then blocked with 10% nonfat milk in TBS-T overnight at 4° C. Next day, membranes were probed with T22 (1:250) for immunoreactivity with tau oligomers and Tau5 (1:10000) for total tau, diluted in 5% nonfat milk for 1 hour at RT. Membranes were then washed three time with TBS-T and incubated with horseradish peroxidase-conjugated IgG anti-rabbit (1:10000) and anti-mouse (1:10000) secondary antibodies to detect, T22 and Tau5, respectively. Blots were then washed three times in TBS-T and exposed to ECL plus (GE Healthcare) was used for signal detection. Densitometric analysis of each band was quantified using Image J.
Compounds were dissolved in ETOH 75%/DMSO (5:1) at a final concentration of 5 mM and diluted in 1× PBS or ddH2O for incubation or toxicity assay (final concentration 5 μM). […]
Densitometric analysis of each band was quantified using Image J and analyzed by two-way ANOVA followed by Dunnett's multiple comparisons test, performed using GraphPad Prism 6.01.

[2] = in vivo; cited from earlier work
[3] = cited from earlier work
[4] = target: T1, recombinant tau oligomers (TauO); assay: Western blot of recombinant tau oligomers with and without compounds; assay type: biochemical; conditions: curcumin 5× and 10×, oligomerization conditions
Description: Pre-cast NuPAGE 4-12% Bis-Tris Gels for SDS-PAGE (Introvigen) were loaded with 3 μg of recombinant tau for each sample per well along with molecular weight marker. After being separated by electrophoresis, proteins were transferred to nitrocellulose membranes. Membranes were then blocked with 10% nonfat milk in Tris-buffered saline with very low tween 0.01% (TBS-T) overnight at 4° C. The next day membranes were probed with T22 (1:250) for tau oligomers and tau5 (1:10000) for total tau, diluted in 5% nonfat milk for 1 hour at RT. Membranes were then incubated with horseradish peroxidase-conjugated IgG anti-rabbit (1:10000) and anti-mouse (1:10000) secondary antibodies to detect, T22 and Tau5, respectively. ECL plus (GE Healthcare) was used for signal detection. Densitometric analysis of each band was quantified using Image J and analyzed by one-way ANOVA.
Recombinant tau protein (tau-441 (2N4R) MW 45.9 kDa) was expressed and purified as described (Margittai and Langen 2004, Margittai and Langen 2006). The tau pellet was treated with 8M urea followed by overnight dialysis against 1× phosphate-buffered saline (PBS) pH 7.4. Tau concentration was measured using bicinchoninic acid protein assay (Micro BCA kit, Pierce) and normalized to 1 mg/ml by adding 1× PBS. Aliquots of tau monomer in PBS were stored at −20° C. […]

[5] = system: SH-SY5Y human neuroblastoma cells; assay: MTT viability of SH-SY5Y cells exposed to TauO pre-incubated with compound; assay type: cell-based; conditions: 2 μM TauO; curcumin final concentration 10 μM
Description: Human neuroblastoma SH-SY5Y cells were maintained in Dulbecco's modified Eagle's medium (DMEM) and grown to confluence in 96-well plates. […] Cells viability was corrected by the vehicle background. All measurements were performed in triplicate. The cytotoxic effect was determined using 3-(4,5-dimethylthiazol-2-yl)-2,5-diphenyltetrazolium bromide (MTT) assay for assessing cell viability following manufacturers' instructions. Optical density (OD) was measured at 490 nm with POLARstar OMEGA plate reader (BMG Labtechnologies). Cell viability was calculated as the percentage of the OD value of treated cells compared with untreated controls, according to the following equation: Viability=(OD SAMPLE/OD CONTROL)×100. […]
Human neuroblastoma SH-SY5Y cells were maintained in Dulbecco's modified Eagle's medium (DMEM) and grown to confluence in 96-well plates. […] The cytotoxic effect was determined using 3-(4,5-dimethylthiazol-2-yl)-2,5-diphenyltetrazolium bromide (MTT) assay for assessing cell viability following manufacturer's instructions. Optical density (OD) was measured at 490 nm with POLARstar OMEGA plate reader (BMG Labtechnologies). Cell viability was calculated as the percentage of the OD value of treated cells compared with untreated controls, according to the following equation: Viability=(OD SAMPLE/OD CONTROL)×100. […]

Structure (SMILES): COc1cc(/C=C/C(=O)CC(=O)/C=C/c2ccc(O)c(OC)c2)ccc1O [curcumin]
- oligomeric tau level, dot blot [1]: decreased levels of oligomeric tau; also recorded: significant decrease in oligomers
- bioavailability [2]: low brain bioavailability following oral administration
- solubility in aqueous media [3]: poor solubility in aqueous buffers
- aggregation state of preformed tau oligomers, Western blot (T22, Tau 5, Tau 13) [4]: promoting the formation of larger tau aggregates
- aggregation state of preformed tau oligomers, Western blot (T22, Tau 5, Tau 13) ([4]; listed as Curcumin): alters the aggregation states of preformed tau oligomers
- viability of SH-SY5Y cells exposed to TauO pre-incubated with curcumin [5]: significantly higher cells viability when compared to TauO alone; also recorded: rescued cells from TauO-induced toxicity
